These results are taken from article PMC6156138, “Combination of a Latency-Reversing Agent With a Smac Mimetic Minimizes Secondary HIV-1 Infection in vitro” (Frontiers in Microbiology, 2018).

Format in all cases: cell-based
One data set has as its system HIV-1 NL4-3. The data set is described as follows: Antiviral assay, HIV-1 NL4-3 in MT-4 cells. As to conditions: MT-4 cells, cultured for 12 days, single drug. As for the experimental part:
Antiviral assays using wild type HIV-1 (HIV-1 NL4-3) cells and MT-4 cells were conducted as previously described ([Maeda et al., 2014]; [Takamatsu et al., 2015]). To determine the cytotoxicity induced by LRAs and its related compounds, cells (5 × 10^5 cells/mL) were cultured in the presence or absence of LRA. After 24 h, cytotoxicity assays were performed using a Cytotoxicity LDH Assay Kit (Dojindo, Kumamoto, Japan) according to the manufacturer’s instructions. The number of living cells with the drug was measured and compared with those without the drug, and data are shown as percentage (%) of control.
Supplementary file Data_Sheet_1.PDF: FIGURE S1 The combined effect of an RT inhibitor (EFdA/MK-8591) ([Nakata et al., 2007]; [Kawamoto et al., 2008]; [Maeda et al., 2014]) and PKC activator (PEP005) on the replication of HIV-1 NL4-3 in MT-4 cells. MT-4 cells were infected with HIV-1 NL4-3 in the presence or absence of drug(s), cultured for 12 days, and the supernatant p24 levels were measured. Click here for additional data file.

The test system of data set [1] is latent HIV-1-infected ACH-2 cells. The data set is described as follows: HIV reactivation from latent cells: supernatant p24 antigen. To be noted: ACH-2 cells; for viral production (supernatant p24 antigen levels): day 2, single drug (Figure 1A). As for the experimental part: (§1) The reactivation of HIV-1 from latently infected cells was determined by the measurement of supernatant p24 antigen and intracellular HIV-1 RNA levels. ACH-2 cells or U1 cells (5 × 10^5 cells/mL) were placed in 96-well plates, and then the cells were incubated with different concentrations of drugs for 24 h to extract RNA and for 48 h to collect the supernatant. The increase in supernatant p24 antigen levels was measured using […] G1200 (Fujirebio, Tokyo, Japan). The total RNA was extracted using an RNeasy Mini Kit (Qiagen, Hilden, Germany), following the manufacturer’s protocols. The cDNA was synthesized using PrimeScript RT Master Mix (Takara Bio, Shiga, Japan), and quantitative real-time PCR analyses for the intracellular HIV-1 RNA were carried out with PowerUp^TM SYBR Green Master Mix (Applied Biosystems, Foster City, CA, United States). The oligonucleotide primers used were as follows: 5′-[…]-3′ (forward) and 5′-[…]-3′ (reverse) for HIV-RNA detection; 5′-[…]-3′ (forward) and 5′-[…]-3′ (reverse) for β-actin. The HIV-RNA expressions were normalized with that of β-actin, which was indicated as the relative quantity, and the increase in HIV-1 RNA levels in the presence of a drug was compared with that without a drug.
(§2) FIGURE 1 (A,B) The increase in viral production from ACH-2 cells (A) and U1 cells (B) was examined by supernatant p24 antigen levels on day 2. (C,D) Changes in the intracellular HIV-1 mRNA levels due to treatment with these drugs in ACH-2 cells (C) and U1 cells (D) after 24 h of incubation.
FIGURE 2 (A) Effect of birinapant when combined with TNF-α. The supernatant p24 levels with birinapant (1∼100 nM) in ACH-2 cell culture on day 2 are shown in white bars, and p24 values with birinapant when combined with TNF-α (10 ng/ml) are shown in black bars. (B) HIV-1 production from ACH-2 cells when reactivated by PEP005 (0.05∼50 nM) for 24 h. (C) Changes in the living cell numbers in the presence of drug(s) on days 1, 3, and 5.

The subject of data set [2] is latent HIV-1-infected U1 cells. Described as above. To be noted: day 2, single drug (Figure 1B). On the procedure:
as §1, §2

A further data set has as its system HL-60. Nature of the data set: Cytotoxicity assay (Cytotoxicity LDH Assay Kit). To be noted: HL-60 cells, 24 h; read-out: CC50 ± SD against HL-60. As for the experimental part:
(§3) To determine the cytotoxicity induced by LRAs and its related compounds, cells (5 × 10^5 cells/mL) were cultured in the presence or absence of LRA. After 24 h, cytotoxicity assays were performed using a Cytotoxicity LDH Assay Kit (Dojindo, Kumamoto, Japan) according to the manufacturer’s instructions. The number of living cells with the drug was measured and compared with those without the drug, and data are shown as percentage (%) of control.

The next data set concerns ACH-2. Nature of the data set: Cytotoxicity assay (Cytotoxicity LDH Assay Kit). As to conditions: ACH-2 cells, 24 h; read-out: CC50 ± SD against ACH-2. As for the experimental part:
as §3

The next data set concerns J1.1. The data set is described as follows: Cytotoxicity assay (Cytotoxicity LDH Assay Kit). To be noted: J1.1 cells, 24 h; read-out: CC50 ± SD against J1.1. On the procedure:
as §3

The next data set has as its system Jurkat. The data set is described as follows: Cytotoxicity assay (Cytotoxicity LDH Assay Kit). As to conditions: Jurkat cells, 24 h; read-out: CC50 ± SD against Jurkat. As for the experimental part: as §3
For the next data set, the system named is A3.01. Nature of the data set: Cytotoxicity assay (Cytotoxicity LDH Assay Kit). To be noted: A3.01 cells, 24 h; read-out: CC50 ± SD against A3.01. As for the experimental part:
as §3

Another data set concerns OM10.1. Nature of the data set: Cytotoxicity assay (Cytotoxicity LDH Assay Kit). As to conditions: OM10.1 cells, 24 h; read-out: CC50 ± SD against OM10.1. On the procedure: as §3
The next data set relates to U937. The data set is described as follows: Cytotoxicity assay (Cytotoxicity LDH Assay Kit). As to conditions: U937 cells, 24 h; read-out: CC50 ± SD against U937. As for the experimental part:
as §3

In another data set the test system is U1. The data set is described as follows: Cytotoxicity assay (Cytotoxicity LDH Assay Kit). To be noted: U1 cells, 24 h; read-out: CC50 ± SD against U1. On the procedure: as §3
Data set [3] can be described thus: Cytotoxicity assay (Cytotoxicity LDH Assay Kit). As to conditions: human. On the procedure:
as §3

The test system of the next data set is cIAP. Nature of the data set: Determination of cIAP expression (western blotting). To be noted: ACH-2 cells, 24 h; birinapant 50 nM, PEP005 5 nM, TNF-α 10 ng/ml. On the procedure:
ACH-2 cells (1 × 10^6 cells/ml) were treated with different concentrations of the drug for 24 h, and the cells were washed twice with PBS. Cells were homogenized by CelLytic M Cell Lysis Reagent (Sigma-Aldrich, St. Louis, MO, United States) containing a protease inhibitor cocktail (Nacalai Tesque, Kyoto, Japan) and were incubated at room temperature (RT) for 15 min. The cells were then centrifuged at 13,000 rpm for 15 min, and the supernatant of the whole cell lysate was collected. The bicinchoninic acid (BCA) protein assay (Thermo Scientific, Rockford, IL, United States) was used to measure the actual protein amount in the treated and untreated cells. The protein extracts were separated through sodium dodecyl sulfate polyacrylamide gel electrophoresis (SDS-PAGE) and then were blotted onto a Trans Blot Turbo polyvinylidene difluoride (PVDF) membrane (Bio-Rad, Hercules, CA, United States). Protein bands were visualized using 3,3′,5,5′-tetramethylbenzidine (TMB) solution (Wako Pure Chemical). The sources of the antibodies were as follows: c-IAP1 (D5G9), c-IAP2 (58C7), and XIAP (3B6) were purchased from Cell Signaling Technology (Danvers, MA, United States); β-actin (C4) was purchased from Santa Cruz Biotechnology.
Supplementary file Data_Sheet_5.PDF: FIGURE S5 Western blotting (WB) analysis for IAP family proteins in ACH-2 cells. Cells were exposed to birinapant (50 nM) in the presence or absence of PEP005 (5 nM), with TNF-α (10 ng/ml) co-treatment for 24 h, and cell lysates were used for WB analysis. Click here for additional data file.

Setting [4] is: A3.01 cells, read-out: CC50 ± SD against A3.01.
Setting [5] is: ACH-2 cells, read-out: CC50 ± SD against ACH-2.
Setting [6] is: HL-60 cells, read-out: CC50 ± SD against HL-60.
Setting [7] is: J1.1 cells, read-out: CC50 ± SD against J1.1.
The mark [8] stands for this setting: Jurkat cells, read-out: CC50 ± SD against Jurkat.
The mark [9] stands for this setting: OM10.1 cells, read-out: CC50 ± SD against OM10.1.
[10] abbreviates: U1 cells, read-out: CC50 ± SD against U1.
Where [11] appears, read: U937 cells, read-out: CC50 ± SD against U937.

Like-named read-outs stand apart in the source and are kept apart here.

Turning to `C#C[C@]1(CO)O[C@@H](n2cnc3c(N)nc(F)nc32)C[C@@H]1O` [EFdA/MK-8591, 4′-ethynyl-2-fluoro-2′-deoxyadenosine], in the data set with HIV-1 NL4-3, the “replication of HIV-1 NL4-3 (supernatant p24)” value is reported as “potently inhibited the replication”.
As a reminder, the CC50 is the concentration that lowers cell viability or growth by half. Turning to `FC(F)(F)Oc1ccc2nc(-c3ccc(OCCOCCOc4ccc(-c5nc6ccc(OC(F)(F)F)cc6[nH]5)nc4)cn3)[nH]c2c1` [AI-10-49], the “viral production (supernatant p24 antigen levels)” value (“viral production” below) in data set [1] and in data set [2] was “failed to increase the p24 levels” throughout. In addition, the CC50 in the data set with HL-60 is above 100 µM; in the data set with ACH-2, 41 ± 10 µM; in the data set on J1.1, above 100 µM; in the data set on Jurkat it was 1100 ± 70 nM; in the data set on A3.01, above 100 µM; with OM10.1, above 100 µM. The 50% cytotoxic concentration (CC50) in the data set on U937 and in the data set with U1 was above 100 µM throughout.
As to Ro5-3335, the “viral production” value in data set [1] and in data set [2] was “failed to increase the p24 levels” throughout. Besides, the CC50 in the data set with HL-60 is above 100 µM; in the data set on ACH-2, above 100 µM; with J1.1 it was above 100 µM; in the data set with Jurkat, above 100000 nM; in the data set on A3.01, above 100 µM; with OM10.1, above 100 µM. Moreover, the CC50 with U937 and with U1 was above 100 µM each time.
Turning to `CCCCOc1nc(N)c2c(n1)N(Cc1cccc(CN3CCCC3)c1)CC(=O)N2` [GS-9620], the “viral production” value in [1] and in [2] was “failed to increase the p24 levels” each time. Moreover, the CC50 at 24 h is above 100 µM in data set [3] (setting [4]); above 100 µM in [3] (setting [5]); above 100 µM in data set [3] (setting [6]); 35 ± 1.3 µM in data set [3] (setting [7]); 23 ± 0.3 µM in data set [3] (setting [8]); above 100 µM in data set [3] (setting [9]). Moreover, the CC50 at 24 h in [3] (setting [10]) and in [3] (setting [11]) was above 100 µM throughout.
Take `Cc1sc2c(c1C)C(c1ccc(Cl)cc1)=N[C@@H](CC(=O)OC(C)(C)C)c1nnc(C)n1-2` [JQ-1]: the “viral production” value in data set [1] and in [2] was “increased viral production” throughout.
In the case of `O=C(CCCCCCC(=O)Nc1ccccc1)NO` [SAHA], the “viral production” value in data set [1] and in data set [2] was “increased viral production” in each case. Moreover, the CC50 at 24 h is above 100 µM in data set [3] (setting [4]); 9 ± 1.2 µM in [3] (setting [5]); above 100 µM in [3] (setting [6]); above 100 µM in data set [3] (setting [7]); 90 ± 2 µM in data set [3] (setting [8]); above 100 µM in [3] (setting [9]). The CC50 at 24 h in data set [3] (setting [10]) and in [3] (setting [11]) was above 100 µM each time.
On to TNF-α, for which the “cIAP expression (western blotting)” value in the data set on cIAP is “upregulation of cIAP-1 (and cIAP-2)”. Moreover, the “increase of supernatant HIV-1 (p24) levels compared with unstimulated cells” value in data set [1] (TNF-α 10 ng/ml, day 2 (Figure 2A)) is above 20 fold. The “supernatant HIV-1 p24 levels” value in data set [1] (after 24 h, PEP005 5 nM and higher (Figure 2B)) is “reactivated and increased the supernatant HIV-1 p24 levels”.
For `CCNC(=O)C[C@@H]1N=C(c2ccc(Cl)cc2)c2cc(OC)ccc2-n2c(C)nnc21` [GSK525762A], the “viral production” value in [1] and in [2] was “increased viral production” each time.
